Values after ≈ are worked out from the molar mass of the structure shown. Active and inactive are the calls of the source. The calls are words filed in the database; no cut-off is given here.
Legend:
Enterococcus faecalis = assay: Antibacterial activity against vancomycin- resistant Enterococcus faecalis by CLSI M100-S18 method; type: functional
Enterococcus faecium = assay: Antibacterial activity against vancomycin- resistant Enterococcus faecium by CLSI M100-S18 method; type: functional
Listeria monocytogenes = assay: Antibacterial activity against Listeria monocytogenes by CLSI M100-S18 method; type: functional
Staphylococcus aureus [1] = assay: Antibacterial activity against ciprofloxacin-susceptible and methicillin-resistant Staphylococcus aureus by CLSI M100-S18 method; type: functional
Staphylococcus aureus [2] = assay: Antibacterial activity against non-ciprofloxacin-susceptible and methicillin-susceptible Staphylococcus aureus by CLSI M100-S18 method; type: functional
[3] = tested on: Staphylococcus epidermidis; assay: Antibacterial activity against ciprofloxacin-susceptible and methicillin-resistant Staphylococcus epidermidis by CLSI M100-S18 method; type: functional
[4] = tested on: Staphylococcus epidermidis; assay: Antibacterial activity against non-ciprofloxacin-susceptible and methicillin-susceptible Staphylococcus epidermidis by CLSI M100-S18 method; type: functional
[5] = tested on: Staphylococcus haemolyticus; assay: Antibacterial activity against Staphylococcus haemolyticus by CLSI M100-S18 method; type: functional
Staphylococcus hominis [6] = assay: Antibacterial activity against Staphylococcus hominis by CLSI M100-S18 method; type: functional
[7] = tested on: Staphylococcus lugdunensis; assay: Antibacterial activity against Staphylococcus lugdunensis by CLSI M100-S18 method; type: functional
[8] = tested on: Staphylococcus saprophyticus; assay: Antibacterial activity against Staphylococcus saprophyticus by CLSI M100-S18 method; type: functional
Staphylococcus warneri [9] = assay: Antibacterial activity against Staphylococcus warneri by CLSI M100-S18 method; type: functional
Streptococcus agalactiae = assay: Antibacterial activity against Streptococcus agalactiae by CLSI M100-S18 method; type: functional
[10] = Antibacterial activity against Lancefield Streptococcus sp. 'group C' by CLSI M100-S18 method; type: functional
Streptococcus sp. = assay: Antibacterial activity against Lancefield Streptococcus sp. group F by CLSI M100-S18 method; type: functional
[11] = Antibacterial activity against Lancefield Streptococcus sp. 'group G' by CLSI M100-S18 method; type: functional
Streptococcus pneumoniae [12] = assay: Antibacterial activity against levofloxacin-susceptible Streptococcus pneumoniae by CLSI M100-S18 method; type: functional
Streptococcus pneumoniae [13] = assay: Antibacterial activity against non-levofloxacin susceptible Streptococcus pneumoniae by CLSI M100-S18 method; type: functional
Streptococcus pyogenes = assay: Antibacterial activity against Streptococcus pyogenes by CLSI M100-S18 method; type: functional
Streptococcus anginosus = assay: Antibacterial activity against Streptococcus anginosus by CLSI M100-S18 method; type: functional
Streptococcus equinus = assay: Antibacterial activity against Streptococcus bovis by CLSI M100-S18 method; type: functional
[14] = tested on: Streptococcus constellatus; assay: Antibacterial activity against Streptococcus constellatus by CLSI M100-S18 method; type: functional
[15] = tested on: Streptococcus intermedius; assay: Antibacterial activity against Streptococcus intermedius by CLSI M100-S18 method; type: functional
Streptococcus mitis = assay: Antibacterial activity against Streptococcus mitis by CLSI M100-S18 method; type: functional
Streptococcus oralis = assay: Antibacterial activity against Streptococcus oralis by CLSI M100-S18 method; type: functional
Streptococcus salivarius = assay: Antibacterial activity against Streptococcus salivarius by CLSI M100-S18 method; type: functional
Streptococcus sanguinis = assay: Antibacterial activity against Streptococcus sanguinis by CLSI M100-S18 method; type: functional
Citrobacter koseri [16] = assay: Antibacterial activity against Citrobacter koseri by CLSI M7-A7 method; type: functional
Haemophilus influenzae [17] = assay: Antibacterial activity against ciprofloxacin-susceptible Haemophilus influenzae by CLSI M7-A7 method; type: functional
Haemophilus influenzae [18] = assay: Antibacterial activity against non-ciprofloxacin-susceptible Haemophilus influenzae by CLSI M7-A7 method; type: functional
Klebsiella oxytoca [19] = assay: Antibacterial activity against Klebsiella oxytoca by CLSI M7-A7 method; type: functional
Legionella pneumophila = assay: Antibacterial activity against Legionella pneumophila by CLSI M7-A7 method; type: functional
Moraxella catarrhalis [20] = assay: Antibacterial activity against Moraxella catarrhalis by CLSI M7-A7 method; type: functional
Morganella morganii [21] = assay: Antibacterial activity against Morganella morganii by CLSI M7-A7 method; type: functional
Neisseria meningitidis [22] = assay: Antibacterial activity against Neisseria meningitidis by CLSI M7-A7 method; type: functional
Staphylococcus aureus [23] = assay: Antibacterial activity against ciprofloxacin-susceptible and methicillin-resistant Staphylococcus aureus assessed as percent susceptible isolates by CLSI M100-S18 method; type: functional
Staphylococcus aureus [24] = assay: Antibacterial activity against non-ciprofloxacin-susceptible and methicillin-susceptible Staphylococcus aureus assessed as percent susceptible isolates by CLSI M100-S18 method; type: functional
[25] = tested on: Staphylococcus epidermidis; assay: Antibacterial activity against ciprofloxacin-susceptible and methicillin-resistant Staphylococcus epidermidis assessed as percent susceptible isolates by CLSI M100-S18 method; type: functional
[26] = tested on: Staphylococcus epidermidis; assay: Antibacterial activity against non-ciprofloxacin-susceptible and methicillin-susceptible Staphylococcus epidermidis assessed as percent susceptible isolates by CLSI M100-S18 method; type: functional
[27] = tested on: Staphylococcus haemolyticus; assay: Antibacterial activity against Staphylococcus haemolyticus assessed as percent susceptible isolates by CLSI M100-S18 method; type: functional
Staphylococcus hominis [28] = assay: Antibacterial activity against Staphylococcus hominis assessed as percent susceptible isolates by CLSI M100-S18 method; type: functional
[29] = tested on: Staphylococcus lugdunensis; assay: Antibacterial activity against Staphylococcus lugdunensis assessed as percent susceptible isolates by CLSI M100-S18 method; type: functional
[30] = tested on: Staphylococcus saprophyticus; assay: Antibacterial activity against Staphylococcus saprophyticus assessed as percent susceptible isolates by CLSI M100-S18 method; type: functional
Staphylococcus warneri [31] = assay: Antibacterial activity against Staphylococcus warneri assessed as percent susceptible isolates by CLSI M100-S18 method; type: functional
Streptococcus pneumoniae [32] = assay: Antibacterial activity against levofloxacin susceptible Streptococcus pneumoniae assessed as percent susceptible isolates by CLSI M100-S18 method; type: functional
Streptococcus pneumoniae [33] = assay: Antibacterial activity against non-levofloxacin susceptible Streptococcus pneumoniae assessed as percent susceptible isolates by CLSI M100-S18 method; type: functional
Citrobacter koseri [34] = assay: Antibacterial activity against Citrobacter koseri assessed as percent susceptible isolates by CLSI M7-A7 method; type: functional
Haemophilus influenzae [35] = assay: Antibacterial activity against ciprofloxacin-susceptible Haemophilus influenzae assessed as percent susceptible isolates by CLSI M7-A7 method; type: functional
Haemophilus influenzae [36] = assay: Antibacterial activity against non-ciprofloxacin-susceptible Haemophilus influenzae assessed as percent susceptible isolates by CLSI M7-A7 method; type: functional
Klebsiella oxytoca [37] = assay: Antibacterial activity against Klebsiella oxytoca assessed as percent susceptible isolates by CLSI M7-A7 method; type: functional
Moraxella catarrhalis [38] = assay: Antibacterial activity against Moraxella catarrhalis assessed as percent susceptible isolates by CLSI M7-A7 method; type: functional
Morganella morganii [39] = assay: Antibacterial activity against Morganella morganii assessed as percent susceptible isolates by CLSI M7-A7 method; type: functional
Neisseria meningitidis [40] = assay: Antibacterial activity against Neisseria meningitidis assessed as percent susceptible isolates by CLSI M7-A7 method; type: functional
[41] = tested on: Staphylococcus epidermidis
[42] = tested on: Staphylococcus epidermidis; remark: listed apart in the source

## CC[C@H]1OC(=O)[C@H](C)[C@@H](O[C@H]2C[C@@](C)(OC)[C@@H](O)[C@H](C)O2)[C@H](C)[C@@H](O[C@@H]2O[C@H](C)C[C@H](N(C)C)[C@H]2O)[C@](C)(O)C[C@@H](C)CN(C)[C@H](C)[C@@H](O)[C@]1(C)O [AZITHROMYCIN]
Enterococcus faecalis
  MIC50: > 128 µg/mL
  MIC90: > 128 µg/mL
Enterococcus faecium
  MIC50: > 128 µg/mL
  MIC90: > 128 µg/mL
Listeria monocytogenes
  MIC50: 0.5 µg/mL (≈ 0.668 µM)
  MIC90: 1 µg/mL (≈ 1.34 µM)
Staphylococcus aureus [1]
  MIC50: 1 µg/mL (≈ 1.34 µM)
Staphylococcus aureus [2]
  MIC50: > 8 µg/mL
  MIC90: > 8 µg/mL
[3]
  MIC: 0.25 µg/mL (≈ 0.334 µM)
[4]
  MIC50: > 8 µg/mL
[5]
  MIC50: > 8 µg/mL
  MIC90: > 8 µg/mL
Staphylococcus hominis [6]
  MIC50: > 8 µg/mL
  MIC90: > 8 µg/mL
[7]
  MIC50: > 8 µg/mL
  MIC90: > 8 µg/mL
[8]
  MIC50: 1 µg/mL (≈ 1.34 µM)
  MIC90: > 8 µg/mL
Staphylococcus warneri [9]
  MIC50: > 8 µg/mL
  MIC90: > 8 µg/mL
Streptococcus agalactiae
  MIC50: 0.5 µg/mL (≈ 0.668 µM)
  MIC90: 0.5 µg/mL (≈ 0.668 µM)
[10]
  MIC50: 0.5 µg/mL (≈ 0.668 µM)
  MIC90: 0.5 µg/mL (≈ 0.668 µM)
Streptococcus sp.
  MIC50: 0.5 µg/mL (≈ 0.668 µM)
  MIC90: 0.5 µg/mL (≈ 0.668 µM)
[11]
  MIC50: 0.5 µg/mL (≈ 0.668 µM)
  MIC90: 0.5 µg/mL (≈ 0.668 µM)
Streptococcus pneumoniae [12]
  MIC50: 0.06 µg/mL (≈ 0.0801 µM)
  MIC90: > 64 µg/mL
Streptococcus pneumoniae [13]
  MIC50: 4 µg/mL (≈ 5.34 µM)
  MIC90: > 64 µg/mL
Streptococcus pyogenes
  MIC50: 0.06 µg/mL (≈ 0.0801 µM)
  MIC90: 8 µg/mL (≈ 10.7 µM)
Streptococcus anginosus
  MIC50: 0.06 µg/mL (≈ 0.0801 µM)
  MIC90: > 8 µg/mL
Streptococcus equinus
  MIC50: 1 µg/mL (≈ 1.34 µM)
  MIC90: 1 µg/mL (≈ 1.34 µM)
[14]
  MIC50: 1 µg/mL (≈ 1.34 µM)
  MIC90: 1 µg/mL (≈ 1.34 µM)
[15]
  MIC50: 1 µg/mL (≈ 1.34 µM)
  MIC90: 1 µg/mL (≈ 1.34 µM)
Streptococcus mitis
  MIC50: 1 µg/mL (≈ 1.34 µM)
  MIC90: 1 µg/mL (≈ 1.34 µM)
Streptococcus oralis
  MIC50: 1 µg/mL (≈ 1.34 µM)
  MIC90: 1 µg/mL (≈ 1.34 µM)
Streptococcus salivarius
  MIC50: 1 µg/mL (≈ 1.34 µM)
  MIC90: 1 µg/mL (≈ 1.34 µM)
Streptococcus sanguinis
  MIC50: 1 µg/mL (≈ 1.34 µM)
  MIC90: 1 µg/mL (≈ 1.34 µM)
Citrobacter koseri [16]
  MIC50: 8 µg/mL (≈ 10.7 µM)
  MIC90: > 8 µg/mL
Haemophilus influenzae [17]
  MIC50: 2 µg/mL (≈ 2.67 µM)
  MIC90: 2 µg/mL (≈ 2.67 µM)
Haemophilus influenzae [18]
  MIC50: 1 µg/mL (≈ 1.34 µM)
  MIC90: 8 µg/mL (≈ 10.7 µM)
Klebsiella oxytoca [19]
  MIC50: > 8 µg/mL
  MIC90: > 8 µg/mL
Legionella pneumophila
  MIC50: 0.03 µg/mL (≈ 0.0401 µM)
  MIC90: 0.03 µg/mL (≈ 0.0401 µM)
Moraxella catarrhalis [20]
  MIC: 0.015 µg/mL (≈ 0.02 µM)
  MIC50: 0.015 µg/mL (≈ 0.02 µM)
  MIC90: 0.03 µg/mL (≈ 0.0401 µM)
Morganella morganii [21]
  MIC50: > 8 µg/mL
  MIC90: > 8 µg/mL
Neisseria meningitidis [22]
  MIC50: 0.06 µg/mL (≈ 0.0801 µM)
  MIC90: 0.06 µg/mL (≈ 0.0801 µM)
Staphylococcus aureus [23]
  Activity: 94.7%
Staphylococcus aureus [24]
  Activity: 18.2%
[25]
  Activity: 100%
[26]
  Activity: 0%
[27]
  Activity: 39.6%
Staphylococcus hominis [28]
  Activity: 30%
[29]
  Activity: 66.7%
[30]
  Activity: 100%
Staphylococcus warneri [31]
  Activity: 76%
Streptococcus pneumoniae [32]
  Activity: 62.5%
Streptococcus pneumoniae [33]
  Activity: 36.5%
Citrobacter koseri [34]
  Activity: 99%
Haemophilus influenzae [35]
  Activity: 100%
Haemophilus influenzae [36]
  Activity: 81.8%
Klebsiella oxytoca [37]
  Activity: 90%
Moraxella catarrhalis [38]
  Activity: 100%
Morganella morganii [39]
  Activity: 76.5%
Neisseria meningitidis [40]
  Activity: 100%
[41]
  MIC90: inactive
[42]
  MIC90: inactive
